# According to patent US7456197B2, “Pyridinium cationic lipids as gene transfer agents” (The Texas A&M University System, priority 2003, dated 2008):
# Entries after “also recorded” stand apart in the source; their conditions may differ.
# Legend:
# [1] = Cationic liposome size by dynamic light scattering; assay type: physicochemical
# Method: (§1) The three series of cationic lipids newly synthesized were assessed for their transfection efficiency in vitro, using the experimental conditions optimized in a previous study.^23 Essentially the cationic lipids were mixed with cholesterol at a 1:1 molar ratio, dissolved in chloroform/methanol and dried under vacuum to generate a lipid film. The dried lipid film was hydrated with sterile phosphate buffer isotonic saline with pH=7.4 (PBS) and sonicated to yield cationic liposomes. The resulting liposomal solution was allowed to react with a DNA solution to form the final cationic lipid-DNA complexes (lipoplexes), which were assessed for transfection efficiency using different cell cultures. We used a pGL3 plasmid (Promega, Madison, Wisc.), encoding a firefly luciferase gene under the control of the constitutively active SV40 promoter as the reporter for the transfection efficiency. An optimal^23 electrostatic charge ratio cationic lipid/DNA of 2:1 was used in all preparations. […] The ability of these new cationic lipids to generate relatively small cationic liposomes could be attributed to the relatively large curvature radius induced in the bilayer by the bulky pyridinium cationic head.
# (§2) Dioleoylphosphatidylethanolamine (DOPE), cholesterol (CHOL), N-(2,3-dioleoyloxypropyl)-N,N,N-trimethylammonium chloride (DOTAP) were commercial products. The purity of the lipids was checked by thin layer chromatography and also by differential scanning calorimetry (DSC), which was also used for determining the critical temperature Tc. For the preparation of the liposomes a protocol optimized for this type of compounds was adopted as follows. The cationic lipid (with or without helper lipid) was dissolved in chloroform/methanol (2/1, v/v) to reach a final concentration of 1 mM for the charged species. From this stock solution 50 μL were aliquoted in a 1 mL tube and the solvent was evaporated in a SpeedVac evaporator, under vacuum, for 1 h. The dried lipid film was prepared by removing the traces of organic solvent in a dessicator, over Drierite®, under vacuum, overnight. The film was hydrated with 500 μL sterile phosphate buffer saline (PBS) the tube was purged with sterile N2, and vortexed for 1 minute. The liposomes were generated by sonicating the tube in a water bath sonicator for 5-30 minutes at 62° C. and at 37° C. for DOTAP. After sonication the preparations were allowed to reach room temperature.
# [2] = tested on: lung cancer cell line NCI-H23; test: Luciferase (pGL3) transfection efficiency of lipoplexes, NCI-H23; assay type: cell-based, human
# Method: as §1, §2
# For generating the lipoplexes, 1.4-2.8 μL plasmid DNA solution (0.5 μg/μL) was diluted with 100 μL Optimem®. A liposome solution was prepared separately by diluting the initial liposomal stock solution (0.1 mM in cationic lipid) with Optimem® in specified proportions, to reach a final volume of 50 μL. Over this liposome solution 50 μL of the DNA stock solution was added, the tube was incubated for 30 minutes at room temperature and then the content diluted with 500 μL Optimem® (final volume of the lipoplex stock solution: 600 μL).
# The lipoplexes was tested for their transfection properties over five different cancer cell lines—breast carcinoma (MCF-7 and MDA-Mb231), lung carcinoma (NCI-H23), prostate carcinoma (DU-145) and brain carcinoma (SWB-95). The cells were maintained in 10% fetal bovine serum (FBS)—enriched RPMI 1640 at 37° C. and 5% CO2 in a humidified atmosphere. Twenty-four hours prior to transfection the cells were transferred in 96-wells microtiter plate at a density of 20,000 cells/well. Each well received 100 μL medium and the plate was incubated in the same conditions. All experiments were done in triplicate or quadruplicate.
# Immediately before transfection the medium was removed from each well and the cells were briefly washed with 200 μL sterile PBS. After removal of the PBS each well received 100 μL lipoplex stock solution and the plate was placed in the incubator for 1 hour. Then, 100 μL medium was added to each well and the plate was incubated for 24 hours. […]
# cancer cell line NCI-H23 = test: WST-1 viability assay of transfected cells; assay type: cell-based, human
# Method: FIG. 6. Viability assay results for the cancer cell line NCI-H23 transfected with 5AMyr-5EMyr and DOTAP (Cl^−)-based lipoplexes. The other characteristics were the same as in the transfection experiment represented in FIG. 5.
# In order to assess the cytotoxicity associated with every anion, a WST-1^28 viability assay was conducted in parallel.
# glioma SWB-95 = test: Luciferase (pGL3) transfection efficiency of lipoplexes, SWB-95; assay type: cell-based; settings: optimized lipoplexes, Chol 1:1, FIG. 7
# Description: (§3) It is well known that specific cell types and cell lines may vary in their ability to be transfected. In addition to the NCI-H23 lung cancer cell line, we therefore tested our optimized formulation of 5AMyr/Chol 1:1 versus DOTAP/Chol 1:1 as reference on four other cell lines from tumors representing cancers of great importance to human health, as well as different tissues of origin: breast carcinomas MCF-7, MDA-Mb231, prostate carcinoma DU-145 and glioma SWB-95 (FIG. 7).
# (§4) Dioleoylphosphatidylethanolamine (DOPE), cholesterol (CHOL), N-(2,3-dioleoyloxypropyl)-N,N,N-trimethylammonium chloride (DOTAP) were commercial products. The purity of the lipids was checked by thin layer chromatography and also by differential scanning calorimetry (DSC), which was also used for determining the critical temperature Tc. For the preparation of the liposomes a protocol optimized for this type of compounds was adopted as follows. The cationic lipid (with or without helper lipid) was dissolved in chloroform/methanol (2/1, v/v) to reach a final concentration of 1 mM for the charged species. […]
# (§5) For the luciferase assay, 20 μL of cell lysate was aliquoted in a test tube and assessed directly using a luciferase assay kit from Promega by means of a luminometer.
# (§6) The protein content was quantified using a bicinchoninic acid (BCA) assay. […]
# [3] = tested on: breast carcinoma MDA-Mb231; test: Luciferase (pGL3) transfection efficiency of lipoplexes, MDA-Mb231; assay type: cell-based; settings: optimized lipoplexes, Chol 1:1, FIG. 7
# Description: as §3, §4, §5, §6
# [4] = tested on: lung cancer cell line NCI-H23; test: Luciferase (pGL3) transfection efficiency of lipoplexes, NCI-H23; assay type: cell-based, human; settings: exposure from one hour to three hours; data not shown
# [5] = tested on: prostate carcinoma DU-145; test: Luciferase (pGL3) transfection efficiency of lipoplexes, DU-145; assay type: cell-based; settings: optimized lipoplexes, Chol 1:1, FIG. 7
# Description: as §3, §4, §5, §6
smiles,measurement,setting,value
"CCCCCCCCCCCCCC(=O)OCC(COC(=O)CCCCCCCCCCCCC)[n+]1c(C)cc(C)cc1C.F[P-](F)(F)(F)(F)F [Lipid 5AMyr, 1-(1,3-dimyristoyloxypropane-2-yl)-2,4,6-trimethylpyridinium hexafluorophosphate]",average size of the cationic vesicles,[1]; cholesterol at 1:1 molar ratio to cationic lipid,95 nm
same,average size of the cationic vesicles,[1]; molar ratio of cholesterol to lipid halved,88 nm
same,"transfection efficiency, counterion study","[2]; 5Myr/Chol 1:1, PBS, sonicated two sequences of 15 minutes, FIG. 5",surpassed DOTAP in transfection efficiency
same,expression of luciferase relative to DOTAP/Chol 1:1,[2]; cholesterol 1:1,about twice more effective than DOTAP
same,transfection efficiency (in words),"[2]; cholesterol as helper lipid 1:1, charge ratio lipid/DNA 2:1",highest transfection peaks; also recorded: the most effective
same,transfection efficiency (luciferase activity normalized for protein),"[2]; optimized lipoplexes, Chol 1:1, FIG. 7 caption (from FIG. 4)",576000 RLU/μg of protein
same,cytotoxicity (WST-1 viability),"cancer cell line NCI-H23; NCI-H23 transfected with lipoplexes, Chol 1:1, FIG. 6",minimum cytotoxicity; also recorded: lower cytotoxic effect
same,cytotoxic effect on longer cell exposure to lipoplexes,"cancer cell line NCI-H23; exposure from one hour to three hours, data not shown",without any visible cytotoxic effect
same,transfection efficiency (luciferase activity normalized for protein),glioma SWB-95,10934 RLU/μg of protein
same,transfection efficiency (luciferase activity normalized for protein),[3],2950 RLU/μg of protein
same,transfection efficiency on longer cell exposure to lipoplexes,[4],higher transfection efficiencies
same,transfection efficiency (luciferase activity normalized for protein),[5],327 RLU/μg of protein
